SMILES	melting point [°C]
O=C(/C=C(/c1ccccc1)c1ccc(NS(=O)(=O)c2ccc([N+](=O)[O-])cc2)cc1)NO [Compound 35, Z-3-[4-(4-Nitrobenzenesulfonylamino)phenyl]-3-phenylpropenohydroxamic Acid]	146 to 148
COc1ccc(S(=O)(=O)Nc2cccc(C(=CC(=O)NO)c3cccc(NS(=O)(=O)c4ccc(OC)c(OC)c4)c3)c2)cc1OC [Compound 44, 3,3-bis[3-(3,4-Dimethoxybenzenesulfonylamino)phenyl]propenohydroxamic Acid]	132 to 135
CN(C)c1cccc2c(S(=O)(=O)Nc3cccc(/C(=C\C(=O)NO)c4ccccc4)c3)cccc12 [Compound 30, Z-3-[3-[5-(Dimethylamino)-1-naphthalenesulfonylamino)phenyl]-3-phenylpropenohydroxamic Acid]	123 to 125
O=C(C=C(c1cccc(NS(=O)(=O)c2ccc3ccccc3c2)c1)c1cccc(NS(=O)(=O)c2ccc3ccccc3c2)c1)NO [Compound 45, 3,3-bis[3-(2-Naphthalenesulfonylamino)phenyl]propenohydroxamic Acid]	128 to 131
O=C(/C=C(/c1ccccc1)c1cccc(NS(=O)(=O)N2CCCCC2)c1)NO [Compound 26, Z-3-[3-(1-Piperidinesulfonylamino)phenyl]-3-phenylpropenohydroxamic Acid]	158 to 159
O=C(C=C(c1cccc(NS(=O)(=O)c2ccc(Br)cc2)c1)c1cccc(NS(=O)(=O)c2ccc(Br)cc2)c1)NO [Compound 40, 3,3-bis [3-(4-Bromobenzenesulfonylamino)phenyl]propenohydroxamic Acid]	137 to 141
O=C(/C=C(/c1ccccc1)c1cccc(NS(=O)(=O)c2cccc3ccccc23)c1)NO [Compound 27, Z-3-[3-(1-Naphthalenesulfonylamino)phenyl]-3-phenylpropenohydroxamic Acid]	160 to 163
O=C(/C=C(/c1ccccc1)c1cc(NS(=O)(=O)c2ccc3ccccc3c2)ccc1Cl)NO [Compound 36, Z-3-[2-Chloro-5-(2-naphthalenesulfonylamino)phenyl]-3-phenylpropenohydroxamic Acid]	173 to 175
COc1ccc(S(=O)(=O)Nc2ccc(Cl)c(/C(=C\C(=O)NO)c3ccccc3)c2)cc1OC [Compound 37, Z-3-[2-Chloro-5-(3,4-dimethoxybenzenesulfonylamino)phenyl]-3-phenylpropenohydroxamic Acid]	127 to 130
O=C(C=C(c1cccc(NS(=O)(=O)c2cccc3cccnc23)c1)c1cccc(NS(=O)(=O)c2cccc3cccnc23)c1)NO [Compound 46, 3,3-bis[3-(8-Quinolinesulfonylamino)phenyl]propenohydroxamic Acid]	152 to 156
O=C(NO)C(F)=C(c1cccc(NS(=O)(=O)c2cccc3cccnc23)c1)c1cccc(NS(=O)(=O)c2cccc3cccnc23)c1 [Compound 49, 2-Fluoro-3,3-bis[3-(8-quinolinesulfonylamino)phenyl]propenohydroxamic Acid]	150 to 153
COc1ccc(C(=O)Nc2cccc(C(=CC(=O)NO)c3cccc(NC(=O)c4ccc(OC)cc4)c3)c2)cc1 [Compound 39, 3,3-bis[3-(4-Methoxybenzoylamino)phenyl]propenohydroxamic Acid]	198 to 200

Now from value to compound:

melting point [°C]	SMILES
195 to 197	COc1ccc(S(=O)(=O)N(c2cccc(/C(=C/C(=O)NO)c3cccnc3)c2)C(C)C)cc1 [Compound 114, Z-3-[3-[N-(4-Methoxybenzenesulfonyl)-N-isopropylamino]phenyl]-3-(3-pyridyl)propenohydroxamic acid]
96 to 99	CN(C)c1cccc2c(S(=O)(=O)N(C)c3cccc(/C(=C\C(=O)NO)c4ccccc4)c3)cccc12 [Compound 74, Z-3-[3-[N-(5-(Dimethylamino)-1-naphthalenesulfonyl)-N-methylamino]phenyl]-3-phenylpropenohydroxamic acid]
168 to 170	O=C(/C=C(/c1ccccc1)c1cccc(N(Cc2cccnc2)S(=O)(=O)c2ccc3ccccc3c2)c1)NO [Compound 67, Z-3-[3-[N-(2-Naphthalenesulfonyl)-N-(3-pyridylmethyl)amino]phenyl]-3-phenylpropenohydroxamic Acid]
176 to 179	COc1ccc(NC(=S)Nc2cccc(/C(=C\C(=O)NO)c3ccccc3)c2)cc1 [Compound 58, Z-3-[3-[3-(4-Methoxyphenyl)thioureido]phenyl]-3-phenylpropenohydroxamic Acid]
151 to 153	COc1ccc(OC)c(S(=O)(=O)N(C)c2cccc(/C(=C\C(=O)NO)c3ccccc3)c2)c1 [Compound 76, Z-3-[3-[N-(2,5-Dimethoxybenzenesulfonyl)-N-methylamino]phenyl]-3-phenylpropenohydroxamic acid]
188 to 191	COc1ccc(S(=O)(=O)Nc2ccc(/C(=C\C(=O)NO)c3ccccc3)cc2)cc1 [Compound 54, Z-3-[4-(4-Methoxybenzenesulfonylamino)phenyl]-3-phenylpropenohydroxamic Acid]
88 to 90	O=C(/C=C(/c1ccccc1)c1cccc(N(Cc2ccccc2)S(=O)(=O)c2ccc3ccccc3c2)c1)NO [Compound 65, Z-3-[3-[N-(2-Naphthalenesulfonyl)-N-benzylamino]phenyl]-3-phenylpropenohydroxamic Acid]
190 to 192	COc1ccc(NC(=O)Nc2cccc(/C(=C\C(=O)NO)c3ccccc3)c2)cc1 [Compound 57, Z-3-[3-[3-(4-Methoxyphenyl)ureido]phenyl]-3-phenylpropenohydroxamic Acid]
134 to 137	COc1ccc(C(=O)Nc2cccc(/C(=C\C(=O)NO)c3ccccc3)c2)cc1 [Compound 53, Z-3-[3-(4-Methoxybenzoylamino)phenyl]-3-phenylpropenohydroxamic Acid]
151 to 153	CCCN(c1cccc(/C(=C\C(=O)NO)c2cccnc2)c1)S(=O)(=O)c1ccc(OC)cc1 [Compound 115, E-3-[3-[N-(4-Methoxybenzenesulfonyl)-N-propylamino]phenyl]-3-(3-pyridyl)propenohydroxamic Acid]
127 to 129	O=C(/C=C(/c1ccccc1)c1cccc(N(CCc2ccccc2)S(=O)(=O)c2ccc3ccccc3c2)c1)NO [Compound 66, Z-3-[3-[N-(2-Naphthalenesulfonyl)-N-(2-phenylethyl)amino]phenyl]-3-phenylpropenohydroxamic Acid]

— patent US20040029928A1, “Novel propenohydroxamic acid derivatives” (priority 2000, published 2004)
